The source of these data is patent US7732449B2, “Inhibitors of cathepsin S” (IRM LLC, priority 2003, dated 2010).

Assay type in all cases: biochemical
For one test, the target named is Cathepsin S (Homo sapiens, UniProt P25774). The test can be described thus: Cathepsin S inhibition, fluorogenic peptide substrate kinetic assay.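 Note: cleavage rate of a coumarin-labelled peptide substrate (50 µM) read as fluorescence increase at Ex 380 nm and Em 450 nm, relative to inhibitor-free control reactions.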
Cathepsin S, sequence (P25774 115-331, species assumed): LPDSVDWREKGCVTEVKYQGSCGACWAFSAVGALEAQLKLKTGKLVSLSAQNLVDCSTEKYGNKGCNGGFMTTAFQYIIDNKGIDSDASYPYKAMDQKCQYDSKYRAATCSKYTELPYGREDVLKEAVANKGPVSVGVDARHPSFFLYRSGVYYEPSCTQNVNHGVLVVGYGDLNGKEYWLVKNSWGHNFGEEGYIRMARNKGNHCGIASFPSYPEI
For another test, the target named is T1, Cathepsin K (Homo sapiens, UniProt P43235).
T1 sequence (P43235 115-329): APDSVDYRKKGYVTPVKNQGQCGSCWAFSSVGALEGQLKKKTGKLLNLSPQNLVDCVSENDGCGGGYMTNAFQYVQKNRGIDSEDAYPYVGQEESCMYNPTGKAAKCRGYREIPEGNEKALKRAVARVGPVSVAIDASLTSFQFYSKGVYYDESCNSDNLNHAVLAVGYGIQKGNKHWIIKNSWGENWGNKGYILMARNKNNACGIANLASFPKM
The test can be described thus: Cathepsin K inhibition, fluorogenic peptide substrate kinetic assay (selectivity). The following applies: ratio of cathepsin K inhibition constant to cathepsin S inhibition constant.

For another test, the target named is Cathepsin L (Homo sapiens, UniProt P07711). The experiment in a line: Cathepsin L inhibition, fluorogenic peptide substrate kinetic assay (selectivity). The following applies: ratio of cathepsin L inhibition constant to cathepsin S inhibition constant.
Cathepsin L, sequence (P07711 114-333, species assumed): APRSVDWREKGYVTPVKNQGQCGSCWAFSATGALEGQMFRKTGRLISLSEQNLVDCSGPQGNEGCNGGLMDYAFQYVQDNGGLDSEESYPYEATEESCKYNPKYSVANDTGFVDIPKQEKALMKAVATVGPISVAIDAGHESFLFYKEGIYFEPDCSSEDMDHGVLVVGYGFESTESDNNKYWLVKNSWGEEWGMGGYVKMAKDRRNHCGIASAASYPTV
The target of another test is Cathepsin B (Homo sapiens, UniProt P07858). The test can be described thus: Cathepsin B inhibition, fluorogenic peptide substrate kinetic assay (selectivity).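 Note: value is the cathepsin B inhibition constant divided by the cathepsin S one, each from kinetic fluorescence readings (ex 380 nm, em 450 nm) of a 10 µM coumarin peptide substrate.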 The following applies: ratio of cathepsin B inhibition constant to cathepsin S inhibition constant.
Setting [1] is: Cathepsin S inhibition constant, pH5.5, 20 minutes preincubation at room temperature, read-out: Ki Cat. S.

Structures are written as SMILES. Where two headings read alike, the source gives them in different places.

As for `O=C(NCCN1CCc2cc(F)ccc21)[C@H](CC1CCCCC1)NC(=O)N1CCOCC1` [Example 2, Morpholine-4-carboxylic acid {2-cyclohexyl-1-(S)-[2-(5-fluoro-2,3-dihydro-indol-1-yl)-ethylcarbamoyl]-ethyl}-amide], the Ki on Cathepsin S (setting [1]) is under 100 nM. Besides, the “Selectivity for Cat. S over Cat. K” value at Cathepsin K is “++ (++, >100)”. Further, the “Selectivity for Cat. S over Cat. L” value on Cathepsin L was “+ (+, >10)”. Further, the “Selectivity for Cat. S over Cat. B” value at Cathepsin B is on record as “+++ (+++, >1000)”.

In the case of `O=C(NCCNc1ccc(F)cc1)[C@H](CC1CCCCC1)NC(=O)N1CCOCC1` [Example 3, Morpholine-4-carboxylic acid {2-cyclohexyl-1-(S)-[2-(4-fluoro-phenylamino)-ethylcarbamoyl]-ethyl}-amide], the Ki at Cathepsin S (setting [1]) is under 100 nM. In addition, on Cathepsin K, the “Selectivity for Cat. S over Cat. K” value is “++ (++, >100)”. Also, the “Selectivity for Cat. S over Cat. L” value on Cathepsin L is listed as “+ (+, >10)”. Besides, the “Selectivity for Cat. S over Cat. B” value at Cathepsin B is given as “++ (++, >100)”.

Turning to `COc1ccc(NCCNC(=O)[C@H](CC2CCCCC2)NC(=O)N2CCOCC2)cc1` [Example 4, Morpholine-4-carboxylic acid {2-cyclohexyl-1-(S)-[2-(4-methoxy-phenylamino)-ethylcarbamoyl]-ethyl}-amide], the Ki at Cathepsin S (setting [1]) is under 100 nM. Also, on Cathepsin K, the “Selectivity for Cat. S over Cat. K” value was “++ (++, >100)”. Besides, the “Selectivity for Cat. S over Cat. L” value on Cathepsin L is recorded as “+ (+, >10)”. Besides, the “Selectivity for Cat. S over Cat. B” value on Cathepsin B is “+++ (+++, >1000)”.

In the case of `O=C(NCCNc1ccc(F)cc1)O[C@@H](CC1CCCCC1)C(=O)N1CCOCC1` [Example 5, [2-(4-Fluoro-phenylamino)-ethyl]-carbamic acid 1-(S)-cyclohexylmethyl-2-morpholin-4-yl-2-oxo-ethyl ester], the inhibition constant (Ki) on Cathepsin S (setting [1]) lay in the range of 1000 to 10000 nM. Besides, the “Selectivity for Cat. S over Cat. K” value on Cathepsin K is on record as “+ (+, >10)”. For the same compound, at Cathepsin L, the “Selectivity for Cat. S over Cat. L” value was “+ (+, >10)”. The “Selectivity for Cat. S over Cat. B” value on Cathepsin B was “+ (+, >10)”.

On Cathepsin S, `O=C(NCCNc1ccc(F)cc1)[C@@H](CC(=O)N1CCOCC1)CC1CCCCC1` [Example 6, 2-(R)-Cyclohexylmethyl-N-[2-(4-fluoro-phenylamino)-ethyl]-4-morpholin-4-yl-4-oxo-butyramide] gave a Ki of 1000 to 10000 nM. For the same compound, the “Selectivity for Cat. S over Cat. K” value on Cathepsin K is given as “+ (+, >10)”. The “Selectivity for Cat. S over Cat. L” value on Cathepsin L is reported as “+ (+, >10)”. For the same compound, the “Selectivity for Cat. S over Cat. B” value on Cathepsin B is “+ (+, >10)”.

With `CC1(C)CN([C@H]2COC[C@@H]2NC(=O)O[C@@H](CC2CCCCC2)C(=O)N2CCOCC2)c2ccc(F)cc21` [Example 7, [4-(R)-(5-Fluoro-3,3-dimethyl-2,3-dihydro-indol-1-yl)-tetrahydro-furan-3-(R)-yl]-carbamic acid 1-(S)-cyclohexylmethyl-2-morpholin-4-yl-2-oxo-ethyl ester], the Ki on Cathepsin S (setting [1]) lay in the range of 1000 to 10000 nM. On Cathepsin K, the “Selectivity for Cat. S over Cat. K” value was “+ (+, >10)”. The “Selectivity for Cat. S over Cat. L” value on Cathepsin L was “+ (+, >10)”. Moreover, the “Selectivity for Cat. S over Cat. B” value on Cathepsin B is listed as “+ (+, >10)”.

Take `C[C@@H](CN1CCc2cc(F)ccc21)NC(=O)[C@@H](CC(=O)N1CCOCC1)CC1CCCCC1` [Example 8, 2-(R)-Cyclohexylmethyl-N-[2-(5-fluoro-2,3-dihydro-indol-1-yl)-1-(S)-methyl-ethyl]-4-morpholin-4-yl-4-oxo-butyramide]: on Cathepsin S (setting [1]), the Ki was under 100 nM. At Cathepsin K, the “Selectivity for Cat. S over Cat. K” value is recorded as “++ (++, >100)”. The “Selectivity for Cat. S over Cat. L” value at Cathepsin L is on record as “++ (++, >100)”. Moreover, the “Selectivity for Cat. S over Cat. B” value at Cathepsin B is “+++ (+++, >1000)”.

In turn, `O=C(C[C@@H](CC1CCCCC1)C(=O)N1CCOCC1)NCCNc1ccc(F)cc1` [Example 9, 3-(R)-Cyclohexylmethyl-N-[2-(4-fluoro-phenylamino)-ethyl]-4-morpholin-4-yl-4-oxo-butyramide] had a Ki at Cathepsin S of 1000 to 10000 nM. In addition, the “Selectivity for Cat. S over Cat. K” value on Cathepsin K was “+ (+, >10)”. Further, the “Selectivity for Cat. S over Cat. L” value at Cathepsin L is given as “+ (+, >10)”. Also, at Cathepsin B, the “Selectivity for Cat. S over Cat. B” value is “+ (+, >10)”.

Take `C[C@@H](CN1CCc2cc(F)ccc21)NC(=O)[C@H](CC1CCCCC1)OC(=O)N1CCOCC1` [Example 12, Morpholine-4-carboxylic acid 2-cyclohexyl-1-(S)-[2-(5-fluoro-2,3-dihydro-indol-1-yl)-1-(S)-methyl-ethylcarbamoyl]-ethyl ester]: the Ki on Cathepsin S (setting [1]) lay within 100 to 1000 nM. In addition, on Cathepsin K, the “Selectivity for Cat. S over Cat. K” value is “+ (+, >10)”. The “Selectivity for Cat. S over Cat. L” value at Cathepsin L was “+ (+, >10)”. Besides, at Cathepsin B, the “Selectivity for Cat. S over Cat. B” value was “++ (++, >100)”.

Take `O=C(NCCNc1ccc(OC(F)(F)F)cc1)[C@@H](CC(=O)N1CCOCC1)CC1CCCCC1` [Example 13, 2-(R)-Cyclohexylmethyl-4-morpholin-4-yl-4-oxo-N-[2-(4-trifluoromethoxy-phenylamino)-ethyl]-butyramide]: on Cathepsin S, the Ki was 100 to 1000 nM. Further, at Cathepsin K, the “Selectivity for Cat. S over Cat. K” value is “++ (++, >100)”. Moreover, at Cathepsin L, the “Selectivity for Cat. S over Cat. L” value was “++ (++, >100)”. Also, the “Selectivity for Cat. S over Cat. B” value on Cathepsin B is “++ (++, >100)”.

The compound `C[C@@H](CNc1ccc(OC(F)(F)F)cc1)NC(=O)[C@@H](CC(=O)N1CCOCC1)CC1CCCCC1` [Example 14, 2-(R)-Cyclohexylmethyl-N-[1-(S)-methyl-2-(4-trifluoromethoxy-phenylamino)-ethyl]-4-morpholin-4-yl-4-oxo-butyramide] returned an inhibition constant Ki at Cathepsin S of under 100 nM. Further, the “Selectivity for Cat. S over Cat. K” value at Cathepsin K is “++ (++, >100)”. Also, the “Selectivity for Cat. S over Cat. L” value on Cathepsin L is listed as “++ (++, >100)”. For the same compound, the “Selectivity for Cat. S over Cat. B” value on Cathepsin B is recorded as “+++ (+++, >1000)”.

On Cathepsin S, `C[C@@H](CNc1ccc(OC(F)(F)F)cc1)NC(=O)[C@@H](CC(=O)N1CCOCC1)CC1CCCC1` [Example 15, 2-(R)-Cyclopentylmethyl-N-[1-(S)-methyl-2-(4-trifluoromethoxy-phenylamino)-ethyl]-4-morpholin-4-yl-4-oxo-butyramide] showed an inhibition constant Ki of under 100 nM. Moreover, the “Selectivity for Cat. S over Cat. K” value on Cathepsin K was “++ (++, >100)”. Also, the “Selectivity for Cat. S over Cat. L” value at Cathepsin L is on record as “++ (++, >100)”. Besides, the “Selectivity for Cat. S over Cat. B” value at Cathepsin B is on record as “+++ (+++, >1000)”.

For `C[C@@H](CNc1ccc(OC(F)(F)F)cc1)NC(=O)[C@H](CC1CCCC1)[C@@H](C)C(=O)N1CCOCC1` [Example 16, 2-(R)-Cyclopentylmethyl-3-(R)-methyl-N-[1-(S)-methyl-2-(4-trifluoromethoxy-phenylamino)-ethyl]-4-morpholin-4-yl-4-oxo-butyramide], the inhibitory constant (Ki) at Cathepsin S (setting [1]) lay within 100 to 1000 nM. For the same compound, the “Selectivity for Cat. S over Cat. K” value on Cathepsin K is listed as “+ (+, >10)”. For the same compound, the “Selectivity for Cat. S over Cat. L” value on Cathepsin L is reported as “+ (+, >10)”. Moreover, on Cathepsin B, the “Selectivity for Cat. S over Cat. B” value is “++ (++, >100)”.

In the case of `C[C@@H](CNc1ccc(OC(F)(F)F)cc1)NC(=O)[C@H](CS(=O)(=O)Cc1ccccc1)NC(=O)N1CCOCC1` [Example 18, Morpholine-4-carboxylic acid {1-(R)-[1-(S)-methyl-2-(4-trifluoromethoxy-phenylamino)-ethylcarbamoyl]-2-phenylmethanesulfonyl-ethyl}-amide], the Ki at Cathepsin S (setting [1]) is under 100 nM. Further, at Cathepsin K, the “Selectivity for Cat. S over Cat. K” value was “+++ (+++, >1000)”. The “Selectivity for Cat. S over Cat. L” value on Cathepsin L is “++ (++, >100)”. Also, the “Selectivity for Cat. S over Cat. B” value at Cathepsin B is reported as “++ (++, >100)”.

`C[C@@H](CNc1ccc(OC(F)(F)F)cc1)NC(=O)[C@@H](CC(=O)N1CCOCC1)CC(C)(C)C` [Example 26, 4,4-Dimethyl-2-(R)-(2-morpholin-4-yl-2-oxo-ethyl)-pentanoic acid [1-(S)-methyl-2-(4-trifluoromethoxy-phenylamino)-ethyl]-amide] showed a Ki at Cathepsin S of 100 to 1000 nM. On Cathepsin L, the “Selectivity for Cat. S over Cat. L” value is “++ (++, >100)”. Also, at Cathepsin B, the “Selectivity for Cat. S over Cat. B” value is given as “++ (++, >100)”.

With `CC(C)[C@@H](CNc1ccc(OC(F)(F)F)cc1)NC(=O)[C@H](CCc1ccccc1)CC(=O)N1CCOCC1` [Example 32, N-{2-Methyl-1-(S)-[(4-trifluoromethoxy-phenylamino)-methyl]-propyl}-4-morpholin-4-yl-4-oxo-2-(R)-phenethyl-butyramide], the inhibition constant (Ki) on Cathepsin S is under 100 nM. The “Selectivity for Cat. S over Cat. L” value at Cathepsin L is “+ (+, >10)”. Further, the “Selectivity for Cat. S over Cat. B” value on Cathepsin B was “+++ (+++, >1000)”.

`C=CC[C@H](CC(=O)N1CCOCC1)C(=O)N[C@H](CNc1ccc(OC(F)(F)F)cc1)C(C)C` [Example 47, 2-(R)-(2-Morpholin-4-yl-2-oxo-ethyl)-pent-4-enoic acid {2-methyl-1-(S)-[(4-trifluoromethoxy-phenylamino)-methyl]-propyl}-amide]: the Ki at Cathepsin S (setting [1]) fell in the range of 100 to 1000 nM. Besides, the “Selectivity for Cat. S over Cat. L” value on Cathepsin L is “+ (+, >10)”. For the same compound, the “Selectivity for Cat. S over Cat. B” value at Cathepsin B is “+ (+, >10)”.

On to `CC(C)[C@@H](CNc1ccc(OC(F)(F)F)cc1)NC(=O)[C@H](CC(=O)N1CCOCC1)c1ccc(S(C)(=O)=O)cc1` [Example 71, 2-(R)-(4-methanesulfonyl-phenyl)-N-{2-methyl-1-(S)-[(4-trifluoromethoxy-phenylamino)-methyl]-propyl}-4-morpholin-4-yl-4-oxo-butyramide], for which the Ki at Cathepsin S (setting [1]) fell in the range of 1000 to 10000 nM. In addition, the “Selectivity for Cat. S over Cat. L” value at Cathepsin L was “++ (++, >100)”. Further, on Cathepsin B, the “Selectivity for Cat. S over Cat. B” value is “+ (+, >10)”.

As for `C[C@@H](CNc1ccc(OC(F)F)cc1)NC(=O)O[C@@H](CC(C)(C)C)C(=O)N1CCOCC1` [Example 85, [2-(4-Difluoromethoxy-phenylamino)-1-(S)-methyl-ethyl]-carbamic acid 3,3-dimethyl-1-(S)-(morpholine-4-carbonyl)-butyl ester], on Cathepsin S (setting [1]), the Ki lay in the range of 1000 to 10000 nM. For the same compound, the “Selectivity for Cat. S over Cat. L” value at Cathepsin L is reported as “+ (+, >10)”. For the same compound, the “Selectivity for Cat. S over Cat. B” value on Cathepsin B is reported as “+ (+, >10)”.
